The record followed here is patent publication US8846620B2, “Resorption enhancers as additives to improve the oral formulation of non-anticoagulant sulfated polysaccharides” (Baxter International Inc., priority 2011, dated 2014).

The subject of series [1] is CaCo-2 cell model. Kind of series: CaCo-2 cell model bioavailability / resorption screening of NASPs with permeation enhancers. The class given is in vitro ADME, human. The conditions noted are these: for Average Percent Resorption at 8 hours: Table 5; for basolateral concentrations in the presence of a gastrointestinal epithelial barrier permeation enhancer: compared with absence of enhancer, figures. Here is the method:
(§1) The bioavailability of NASPs in combination with gastrointestinal epithelial barrier permeation enhancers of interest were studied using the CaCo-2 cell model screening. This method utilizes a human colon carcinoma cell line that expresses a wide range of transporter proteins on its cell membranes. Cell layers are grown on a membrane surface that separates two compartments (24-well plate). An example of the experimental setup for these experiments is illustrated in FIG. 1. Selected NASP and gastrointestinal epithelial barrier permeation enhancer samples were dissolved in RPMI cell medium at a concentration of 1 mg/mL and applied onto the cells in the apical compartment. Cells were incubated at 37° C. in 5% CO2. Medium samples were removed from the basolateral and apical compartment at different time points. The condition of the cell layer was monitored by measurement of the transepithelial electrical resistance (TEER). Samples were analyzed by thrombin generation assay (CAT). NASP concentration was calculated based on activity from CAT assay. Experimental details of thrombin generation assays and other blood coagulation assays are described in U.S. patent application Ser. No. 11/140,504, filed on May 27, 2005, now U.S. Pat. No. 7,767,654, and U.S. patent application Ser. No. 13/006,396, filed on Jan. 13, 2011, the disclosures of which is herein incorporated by reference.
All NASP and gastrointestinal epithelial barrier permeation enhancer samples were diluted in such a way that the sample concentration was in the range of increasing procoagulant activity. Based on the initial load concentration values, apical and basolateral concentrations were determined at 2 hour increments (e.g., 2 hours, 4 hours, 6 hours, 8 hours, including 24 hours). Based on the determined basolateral concentrations, the percent resorption was determined for each combination of compounds (i.e., NASP and gastrointestinal epithelial barrier permeation enhancers).
FIGS. 4-8 illustrate resorption of some natural NASPs of interest in Caco-2 cell models as determined by TGA and liquid chromatography/mass spectrometry in combination with different gastrointestinal epithelial barrier permeation enhancers. FIGS. 9 and 10 illustrate resorption of some synthetic NASPs of interest in Caco-2 cell models as determined by TGA and liquid chromatography/mass spectrometry in combination with different gastrointestinal epithelial barrier permeation enhancers.

In series [2] the test system is CaCo-2 cell layer. Kind of series: Condition of the cell layer by transepithelial electrical resistance (TEER) in CaCo-2 screening. The format is cell-based, human. Here is the method: as §1, with “reference. […]” for “reference.”
[3] abbreviates: Bromelain/Chitosan 0.5 mg/mL: 3%.
Where [4] appears, read: in the presence of bromelain at 8 hours.
[5] abbreviates: in the presence of deoxycholate at 8 hours.

In the case of “Sulfated 6-Carboxyicodextrin [Sulfated 6-Carboxyicodextrin 14 kD]”, the “Average Percent Resorption at 8 hours” value in series [1] (Bromelain 0.5 mg/mL) was found to be 17.7%; in series [1] (setting [3]) it was 44.5%; in series [1] (Chitosan 3%), 5.4%; in series [1] (Deoxycholate 0.08%), 27.2%; in series [1] (No enhancer), 3.8%.

Consider “Sulfated 6-Carboxyicodextrin [Sulfated 6-Carboxyicodextrin 24 kD]”, for which the “Average Percent Resorption at 8 hours” value is 10.0% in series [1] (Bromelain 0.5 mg/mL); 36.8% in series [1] (setting [3]); 2.6% in series [1] (Chitosan 3%); 4.9% in series [1] (Deoxycholate 0.06%); 14.7% in series [1] (Deoxycholate 0.08%); 1.6% in series [1] (No enhancer).

Sulfated Maltopentose: the “Average Percent Resorption at 8 hours” value was determined as 48.6% in series [1] (Bromelain 0.5 mg/mL); 158.8% in series [1] (setting [3]); 35.7% in series [1] (Chitosan 3%); 67.4% in series [1] (Deoxycholate 0.06%); 113.2% in series [1] (Deoxycholate 0.08%); 0% in series [1] (No enhancer). In series [1] (Sodium Caprate 12 mM), the “Average Percent Resorption at 8 hours” value is 13.1%. In series [1], the “basolateral concentrations in the presence of a gastrointestinal epithelial barrier permeation enhancer” value is recorded as “increased”. The “resorption in Caco-2 cell models” value in series [1] (setting [4]) was “increased substantially”; in series [1] (in the presence of chitosan), “strong increased resorption”; in series [1] (setting [5]), “increased substantially”; in series [1] (in the presence of sodium caprate), “strong increased resorption”. Also, the “transepithelial electrical resistance after removal of the permeation enhancer and the NASP” value in series [2] (after removal of enhancer and maltopentaose) is “increased”.

For the substance Sulfated β-cyclodextrin, the “Average Percent Resorption at 8 hours” value amounted to 24.7% in series [1] (Bromelain 0.5 mg/mL); 59.8% in series [1] (setting [3]); 15.6% in series [1] (Chitosan 3%); 20.6% in series [1] (Deoxycholate 0.06%); 36.1% in series [1] (Deoxycholate 0.08%); 0% in series [1] (No enhancer). In addition, the “Average Percent Resorption at 8 hours” value in series [1] (Sodium Caprate 12 mM) is 19.3%. For the same substance, the “basolateral concentrations in the presence of a gastrointestinal epithelial barrier permeation enhancer” value in series [1] is on record as “increased”. The “resorption in Caco-2 cell models” value in series [1] (setting [4]), in series [1] (setting [5]) and in series [1] (in the presence of sodium caprate at 8 hours) was “increased substantially” each time.

With bromelain, in series [2] (enhancer alone, no NASP), the “transepithelial electrical resistance after treatment with the permeation enhancer alone” value is listed as “recovery of the transepithelial electrical resistance”.
